# Laboratory results: the supplement of paper PMC11208160
# Test: recombinant barcode read abundance after kanamycin selection (control-corrected) (log10(CPM+1)); higher = more efficient recombination; sequences stand for … in AGTGCAGAGAAAATCGGCCAGTTTTCTCTGCCTGCAGTCCGCATGCCGT…AGATTTATGCAGCGGACTGCCTTTCTCCCAAAGTGATAAACCGGACAGTATCATGGACCGGTTTTCCCGGTAATCCGTATTTGCAAGGTTGGTTTCACT; site = the 11-nt target
# How it was run: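 The screen was pooled in E. coli and paired targets with IS621 bridge RNA target-binding loops. Recombination efficiency is taken from barcode counts per million at recombinant junctions, averaged and adjusted against the control. Values, in the form log10(CPM+1), come from duplicate plating on chloramphenicol/ampicillin LB agar or on chloramphenicol/ampicillin/kanamycin with 0.1 mM IPTG.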
# 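Further: IS621 recombinase and bridge RNA in Escherichia coli cells.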
row,Sequence,recombinant barcode read abundance (log10)
1,GGATTCACTTGGGTTCTAACCTGTTGCCA (site GGATCCACTTG),0.0631
2,GGATTCACTTGGGTTCTAACCTGTTGCCA (site GGATGCACTTG),0.925
3,GGATTCACTTGGGTTCTAACCTGTTGCCA (site GGATTCACTTG),0.992
4,GGCACGACTTGGGTTCTAACCTGTTGCCT (site GGCACAACTAG),0.274
5,GGCACGACTTGGGTTCTAACCTGTTGCCT (site GGCACCACTAG),0.221
6,GGCACGACTTGGGTTCTAACCTGTTGCCT (site GGCACGACTAG),0.323
7,GGCACGACTTGGGTTCTAACCTGTTGCCT (site GGCACTACTAG),0.0541
8,GGCACTCCTTGGGTTCTAACCTGTTGCCT (site GGCACTCCTAG),0.351
9,GGCACTCCTTGGGTTCTAACCTGTTGCCT (site GGCATTCCTAG),0.171
10,GGCACTGCTTGGGTTCTAACCTGTTGCCT (site GGCACAGCTAG),0.332
11,GGCACTGCTTGGGTTCTAACCTGTTGCCT (site GGCACCGCTAG),0.123
12,GGCACTGCTTGGGTTCTAACCTGTTGCCT (site GGCACGGCTAG),0.189
13,GGCACTGCTTGGGTTCTAACCTGTTGCCT (site GGCACTGCTAG),0.34
14,GGCAGATCTTGGGTTCTAACCTGTTGCTT (site GGCAGATCTAA),0.193
15,GGCAGATCTTGGGTTCTAACCTGTTGCTT (site GGCAGCTCTAA),0.043
16,GGCAGATCTTGGGTTCTAACCTGTTGCTT (site GGCAGGTCTAA),0.0248
17,GGCAGATCTTGGGTTCTAACCTGTTGCTT (site GGCAGTTCTAA),0.9
18,GGCAGTCCTTGGGTTCTAACCTGTTGCCG (site GGCAGACCTAG),0.169
19,GGCAGTCCTTGGGTTCTAACCTGTTGCCG (site GGCAGTCCTCG),0.364
20,GGCAGTCCTTGGGTTCTAACCTGTTGCTT (site GGCAGTCCTAA),0.336
21,GGCAGTCCTTGGGTTCTAACCTGTTGCTT (site GGCAGTCCTAG),0.252
22,GGCCGGCCTTGGGTTCTAACCTGTTGCCT (site GGCCGGACTAG),0.0681
23,GGCCGGCCTTGGGTTCTAACCTGTTGCCT (site GGCCGGCCTAG),0.128
24,GGCCGGCCTTGGGTTCTAACCTGTTGCCT (site GGCCGGGCTAG),1.02
25,GGCCGGCCTTGGGTTCTAACCTGTTGCCT (site GGCCGGTCTAG),0.191
26,GGCCGGTCTTGGGTTCTAACCTGTTGCCT (site GGCCGGACTAG),0

row,Sequence,recombinant barcode read abundance (log10)
1,GGCCGGTCTTGGGTTCTAACCTGTTGCCT (site GGCCGGCCTAG),0.248
2,GGCCGGTCTTGGGTTCTAACCTGTTGCCT (site GGCCGGGCTAG),0.0483
3,GGCCGGTCTTGGGTTCTAACCTGTTGCCT (site GGCCGGTCTAG),1.78
4,GGCGTAGCTTGGGTTCTAACCTGTTGCCT (site GACGTAGCTAG),0.416
5,GGCGTAGCTTGGGTTCTAACCTGTTGCCT (site GCCGTAGCTAG),0.624
6,GGCGTAGCTTGGGTTCTAACCTGTTGCCT (site GGCGTAGCTAG),2.37
7,GGCGTAGCTTGGGTTCTAACCTGTTGCCT (site GTCGTAGCTAG),0.227
8,GGCTCCTCTTGGGTTCTAACCTGTTGCCT (site AGCTCCTCTAG),0.849
9,GGCTCCTCTTGGGTTCTAACCTGTTGCCT (site CGCTCCTCTAG),0.0966
10,GGCTCCTCTTGGGTTCTAACCTGTTGCCT (site GGCTCCTCTAG),0.733
11,GGCTCCTCTTGGGTTCTAACCTGTTGCCT (site TGCTCCTCTAG),0.0949
12,GGCTTACCTTGGGTTCTAACCTGTTGCCT (site AGCTTACCTAG),0.0239
13,GGCTTACCTTGGGTTCTAACCTGTTGCCT (site CGCTTACCTAG),0.0687
14,GGCTTACCTTGGGTTCTAACCTGTTGCCT (site GGCTTACCTAG),0.556
15,GGCTTACCTTGGGTTCTAACCTGTTGCCT (site TGCTTACCTAG),0.395
16,GGCTTGTCTTGGGTTCTAACCTGTTGCCT (site GGCATGTCTAG),0.0663
17,GGCTTGTCTTGGGTTCTAACCTGTTGCCT (site GGCTTGTCTAG),0.655
18,GGGAACGCTTGGGTTCTAACCTGTTGCCT (site GGGAACGCTAG),2.85
19,GGGAACGCTTGGGTTCTAACCTGTTGCCT (site GGGAATGCTAG),0.0432
20,GGGACATCTTGGGTTCTAACCTGTTGCCT (site GGGACATCTAG),0.987
21,GGGACATCTTGGGTTCTAACCTGTTGCCT (site GGGGCATCTAG),0.015
22,GGGACCACTTGGGTTCTAACCTGTTGCTA (site GGGACCACTTA),1.77
23,GGGACCACTTGGGTTCTAACCTGTTGCTA (site TTCGGACCTCC),0.0578
24,GGGACCTCTTGGGTTCTAACCTGTTGCTC (site GGGACCTCTGA),1.24
25,GGGACCTCTTGGGTTCTAACCTGTTGCTC (site GTGACCTCTCA),0.167
26,GGGACGACTTGGGTTCTAACCTGTTGCTA (site GGGACGACTAA),0.161

row,Sequence,recombinant barcode read abundance (log10)
1,GGGACGACTTGGGTTCTAACCTGTTGCTA (site GGGACGACTTA),1.35
2,GGGATACCTTGGGTTCTAACCTGTTGCCT (site GCGTTACCTAG),0.0414
3,GGGATACCTTGGGTTCTAACCTGTTGCCT (site GGGATACCTAG),2.6
4,GGGCACTCTTGGGTTCTAACCTGTTGCAT (site GGGCACTCTAA),0.75
5,GGGCACTCTTGGGTTCTAACCTGTTGCAT (site GGGCACTCTAC),0.132
6,GGGCACTCTTGGGTTCTAACCTGTTGCAT (site GGGCACTCTAG),0.606
7,GGGCACTCTTGGGTTCTAACCTGTTGCAT (site GGGCACTCTAT),2.22
8,GGGCACTCTTGGGTTCTAACCTGTTGCCT (site GGGCACTCTAA),0.122
9,GGGCACTCTTGGGTTCTAACCTGTTGCCT (site GGGCACTCTAC),0.0754
10,GGGCACTCTTGGGTTCTAACCTGTTGCCT (site GGGCACTCTAG),1.22
11,GGGCACTCTTGGGTTCTAACCTGTTGCCT (site GGGCACTCTAT),0.585
12,GGGCACTCTTGGGTTCTAACCTGTTGCTT (site GGGCACTCTAA),1.93
13,GGGCACTCTTGGGTTCTAACCTGTTGCTT (site GGGCACTCTAC),0.503
14,GGGCACTCTTGGGTTCTAACCTGTTGCTT (site GGGCACTCTAG),1.35
15,GGGCACTCTTGGGTTCTAACCTGTTGCTT (site GGGCACTCTAT),1.54
16,GGGCAGGCTTGGGTTCTAACCTGTTGCCT (site ATCGTATCTGC),0.189
17,GGGCAGGCTTGGGTTCTAACCTGTTGCCT (site GGGCAGGCTAG),0.969
18,GGGCCCGCTTGGGTTCTAACCTGTTGCTA (site GGGCCCGCTTA),1.68
19,GGGCCCGCTTGGGTTCTAACCTGTTGCTA (site GGTCCCGCTTG),0.0696
20,GGGCCTACTTGGGTTCTAACCTGTTGCTC (site GGGCCTACTAA),0.248
21,GGGCCTACTTGGGTTCTAACCTGTTGCTC (site GGGCCTACTCA),0.0546
22,GGGCCTACTTGGGTTCTAACCTGTTGCTC (site GGGCCTACTGA),0.29
23,GGGCCTACTTGGGTTCTAACCTGTTGCTC (site GGGCCTACTTA),0.171
24,GGGCCTACTTGGGTTCTAACCTGTTGCTT (site GGGCCTACTAA),0.914
25,GGGCCTACTTGGGTTCTAACCTGTTGCTT (site GGGCCTACTCA),0.369
